# Laboratory results published in patent US20110105623A1 (Biogenic Innovations, LLC, priority 2009, published 2011).
# What was measured:
# [1] = test system: Streptococcus Pyogenes (Lancefield group A, #10096); assay: Bacterial viability by bioluminescent ATP assay
# [2] = test system: Streptococcus Pneumonia (#10341); assay: Bacterial viability by bioluminescent ATP assay
Compound,IC50 [1],S. pneumonia viability (%) ([2]; 25 μg/L penicillin alone),reduced viability by ([2]; 25 μg/L penicillin alone),S. pneumonia viability (%) ([2]; 50 μg/L Penicillin alone),S. pneumonia viability (%) ([2]; 100 μg/L Penicillin alone),"S. pneumonia viability ([2]; Penicillin 100 μg/L, MSM 0%) [%]",Viability of S. pyogenes ([1]; DMSO Concentration 0.31) [%],Viability of S. pyogenes ([1]; DMSO Concentration 0.63) [%],Viability of S. pyogenes ([1]; DMSO Concentration 1.25) [%],Viability of S. pyogenes ([1]; DMSO Concentration 2.50) [%],"S. pyogenes viability ([1]; DMSO […], MSM 0%) [%]",IC50 [2] [%],reduces viability by ([2]; 5% DMSO)
Penicillin,15.25 µg/L,79.82,approximately 21%,42.70,40.93,40.93,,,,,,,
"C[S+](C)[O-] [DMSO, Dimethyl sulfoxide]",9.07%,,,,,,100,100,100,100,100,12.86,approximately 25%
